Laboratory results taken from patent publication US11726082B2, “Screening method of drug candidates for treating disease using interaction between calcium and phosphatidylinositol phosphate” (Gachon University of Industry—Academic Cooperation …, priority 2017, dated 2023).

What was measured:
[1] = system: human HepG2 cells; test: Intracellular calcium dynamics with Fura-2 AM in insulin resistance induced cells; assay type: cell-based; conditions: PA
Description: First, human HepG2 cells were cultured in DMEM (Dulbecco's Modified Eagle Medium) supplemented with 10% fetal bovine serum (FBS), 25 mM glucose, 2 mM L-glutamine, 100 U/Ml of penicillin and 100 μg/Ml of streptomycin. At this time, the culture was performed in a 37° C., 5% CO2 incubator. The cultured cells were distributed in a culture plate at the density of 5.0×10^5 cells/well, followed by further culture for overnight. Palmitic acid (PA) was added to the plate at the concentration of 0, 100, 300 or 500 μM, followed by reaction for 24 hours. Then, the concentration of calcium was investigated by using Fluo-3 AM according to the same conditions and procedures as described in Example 1, and the results are shown in FIG. 2A and FIG. 2B.
Intracellular calcium dynamics was confirmed in the fatty liver cell model constructed in vitro by inducing insulin resistance. At this time, the experiment was performed by the same manner under the same conditions as described in Example 3 except that Fura-2 AM was used instead of Fluo-3 AM.

[2] = system: human HepG2 cells; test: Intracellular calcium concentration with Fluo-3 AM in insulin resistance induced cells; assay type: cell-based; conditions: PA 0, 100, 300 or 500 μM, 24 hours
Description: First, male C57BL/6 mice at 8 weeks (Orient Bio, Korea) were raised in an animal facility of Lee Gil Ya Cancer and Diabetes Institute (Gachon University, Korea). Particularly, the mice were raised in a sterile chamber at the temperature of 23±1° C. with 12 hr/12 hr light/dark cycle, and free dietary environment. At this time, the mice were divided into the fasted group wherein the mice were fasted for 16 hours and the refed group wherein the mice were fasted for 16 hours and then fed for 4 hours. Each group was sub-divided into the high fat diet group (HFD) and the normal diet group (chow). The high fat diet group (HFD) mice were fed with diet containing 60% fat, while the normal diet group (chow) mice were fed with diet containing 10% fat. 8 weeks later, the mice were anesthetized and the liver was perfused by using buffer 1 (142 mM NaCl, 6.7 mM KCl, 10 mM HEPES and 2.5 mM EGTA, pH 7.4). Buffer 1 above was replaced with buffer 2 (0.5 mg/Mg […], 66.7 mM NaCl, 6.7 mM KCl, 10 mM HEPES and 4.8 mM CaCl, pH 7.6), and then the perfused liver was extracted. The extracted liver was washed and degraded by using Percoll cushion gradient. The degraded cells were suspended and cultured in Hepatozyme-SFM (Gibco-BRL USA) culture medium supplemented with 10% FBS and 1% antibiotics and antifungal agent. […] The mounted cells were analyzed using a fluorescence microscope (Zeiss Axioplan 2). […]

[3] = system: Akt protein; test: Western blotting of Akt protein phosphorylation in insulin-treated HepG2 cells; assay type: cell-based, human; conditions: PA 24 hours, 100 nM insulin 15 minutes, compared with insulin alone
Description: First, male C57BL/6 mice at 8 weeks were divided into the fasted group wherein the mice were fasted for 16 hours and the refed group wherein the mice were fasted for 16 hours and then fed for 4 hours. Each group was sub-divided into the high fat diet group (HFD) and the normal diet group (chow). The liver cells were extracted from the raised mice by the same manner and under the same conditions as described in Example 1. The extracted liver cells were lysed in a lysis buffer containing phosphatase (Sigma-Aldrich, USA) and protease inhibitor (Sigma-Aldrich, USA). Proteins extracted from 2 to 3 mg of the liver tissue were homogenized by using a tissue homogenizer (TissuLyser, Qiagen, USA) for 1.5 minutes at a frequency of 1/30 sec. The homogenized lysate was centrifuged at 12,000 rpm for 15 minutes and the supernatant was obtained. The amount of the extracted protein was quantified by using a protein assay kit (Bio-Rad Laboratories, USA), and at this time BSA was used as a standard sample. 3 mg of the protein was mixed with 6× loading buffer, followed by electrophoresis using 10% SDS-PAGE gel. The electrophoresed protein was transferred onto a polyvinylidene fluoride (PVDF) membrane by using a transfer buffer at 4° C. with 120 V for 1.5 hours. The PVDF membrane on which the protein was transferred was pretreated with a blocking buffer prepared by mixing 5% skim milk with TBS buffer (TBS-T, pH 7.6) supplemented with Tween 20 for 30 minutes, and the membrane was washed with TBS-T. The washed membrane was added with the antibody against Akt (Cell Signaling Technology, USA), Akt(T308) (Cell Signaling Technology, USA), Akt(S473) (Cell Signaling Technology, USA), FOXO3A (Cell Signaling Technology, USA), FOXO3A(S253) (Cell Signaling Technology, USA), GSK-3β (Cell Signaling Technology, USA) or GSK-3β(S9) (Cell Signaling Technology, USA) protein as a primary antibody, followed by reaction at 4° C. for 12 hours. At this time, the antibody against actin (Santa Cruz Biotechnology, USA) protein was used for the control group. Upon completion of the reaction, the secondary antibody corresponding to the primary antibody was added thereto, followed by reaction at room temperature for 30 minutes. The PVDF membrane was washed with TBS-T buffer three times. The washed PVDF membrane was added with ECL solution (Thermo Scientific, USA), followed by image observation.
To investigate the changes in insulin sensitivity when insulin was added to the fatty liver cell model constructed in vitro, the phosphorylations of those proteins that were involved in insulin signal transduction were examined. PA was added to the human HepG2 cells prepared in Example 3, followed by reaction for 24 hours. […]

[4] = system: Akt protein; test: Western blot of Akt activity with C2-Akt fusion protein and PI3K co-treated with PTEN or SHIP2; assay type: cell-based; conditions: cells with C2-Akt fusion protein and PI3K vectors co-treated with PTEN or SHIP2
Description: Particularly, the experiment was performed by the same manner under the same conditions as described in Example 2 except that the vector expressing the C2-Akt fusion protein and the vector expressing PI3K protein were co-treated with PTEN or SHIP2 and the antibody against Akt (Cell Signaling Technology, USA), Akt(T308) (Cell Signaling Technology, USA), Akt(S473) (Cell Signaling Technology, USA), PI3K (Cell Signaling Technology, USA), PTEN (Cell Signaling Technology, USA) or SHIP2 (Upstate Biotechnology, USA) protein was used as the primary antibody.

| Molecule | intracellular calcium concentration [1] | concentration of calcium in the cytoplasm [2] | Akt protein phosphorylation [3] | Akt protein activity [4] |
| --- | --- | --- | --- | --- |
| CCCCCCCCCCCCCCCC(=O)O [PA, Palmitic acid] | significantly increased | increased | significantly inhibited | – |
| SHIP2: co-treated with the C2-Akt and PI3K vectors (protein, UniProt O15357 1-1258, looked up) Phosphatidylinositol …: MASACGAPGPGGALGSQAPSWYHRDLSRAAAEELLARAGRDGSFLVRDSESVAGAFALCVLYQKHVHTYRILPDGEDFLAVQTSQGVPVRRFQTLGELIGLYAQPNQGLVCALLLPVEGEREPDPPDDRDASDGEDEKPPLPPRSGSTSISAPTGPSSPLPAPETPTAPAAESAPNGLSTVSHDYLKGSYGLDLEAVRGGASHLPHLTRTLATSCRRLHSEVDKVLSGLEILSKVFDQQSSPMVTRLLQQQNLPQTGEQELESLVLKLSVLKDFLSGIQKKALKALQDMSSTAPPAPQPSTRKAKTIPVQAFEVKLDVTLGDLTKIGKSQKFTLSVDVEGGRLVLLRRQRDSQEDWTTFTHDRIRQLIKSQRVQNKLGVVFEKEKDRTQRKDFIFVSARKREAFCQLLQLMKNKHSKQDEPDMISVFIGTWNMGSVPPPKNVTSWFTSKGLGKTLDEVTVTIPHDIYVFGTQENSVGDREWLDLLRGGLKELTDLDYRPIAMQSLWNIKVAVLVKPEHENRISHVSTSSVKTGIANTLGNKGAVGVSFMFNGTSFGFVNCHLTSGNEKTARRNQNYLDILRLLSLGDRQLNAFDISLRFTHLFWFGDLNYRLDMDIQEILNYISRKEFEPLLRVDQLNLEREKHKVFLRFSEEEISFPPTYRYERGSRDTYAWHKQKPTGVRTNVPSWCDRILWKSYPETHIICNSYGCTDDIVTSDHSPVFGTFEVGVTSQFISKKGLSKTSDQAYIEFESIEAIVKTASRTKFFIEFYSTCLEEYKKSFENDAQSSDNINFLKVQWSSRQLPTLKPILADIEYLQDQHLLLTVKSMDGYESYGECVVALKSMIGSTAQQFLTFLSHRGEETGNIRGSMKVRVPTERLGTRERLYEWISIDKDEAGAKSKAPSVSRGSQEPRSGSRKPAFTEASCPLSRLFEEPEKPPPTGRPPAPPRAAPREEPLTPRLKPEGAPEPEGVAAPPPKNSFNNPAYYVLEGVPHQLLPPEPPSPARAPVPSATKNKVAITVPAPQLGHHRHPRVGEGSSSDEESGGTLPPPDFPPPPLPDSAIFLPPSLDPLPGPVVRGRGGAEARGPPPPKAHPRPPLPPGPSPASTFLGEVASGDDRSCSVLQMAKTLSEVDYAPAGPARSALLPGPLELQPPRGLPSDYGRPLSFPPPRIRESIQEDLAEEAPCLQGGRASGLGEAGMSAWLRAIGLERYEEGLVHNGWDDLEFLSDITEEDLEEAGVQDPAHKRLLLDTLQLSK | – | – | – | reduced |
